Experimental data reported in patent publication US20040266623A1, “SYNERGISTIC QUINCLORAC HERBICIDAL COMPOSITIONS” (priority 2003, published 2004).

Experiments:
Experiment in all cases: Greenhouse pot test, postemergent spray, visual control rating converted to percent control
Format in all cases: in vivo
white clover = system: white clover
Experimental: (§1) Pots of crabgrass, dandelion, white clover, and plantain grown in greenhouse soiless growth media were sprayed with a greenhouse pot sprayer at 43.46 gallons of spray solution/acre and allowed to stand in the greenhouse. Visual observation of the effects made by the herbicidal compositions on the plants in the test pots was recorded for control of crabgrass, dandelion, clover and plantain at 24 hours after treatment (HAT), 48 hours after treatment (HAT), 72 hours after treatment (HAT), 7 days after treatment (DAT), 14 days after treatment (DAT) and 21 days after treatment (DAT). A control rating scale of 1 to 9 was used to record the visual observation of the effect of the herbicidal composition on the plants over the time period of the tests. 1=no control, and 9=death of plant, with intervening numbers representing successive degrees of observed effectiveness of the herbicidal composition over time. The 1-9 control rating scale was converted to percent control in the test data charts that follow.
(§2) The test protocol of S. R. Colby as set out in his article entitled “Calculating Synergistic and Antagonistic Responses of Herbicide Compositions,” received for publication Apr. 11, 1966, Contribution No. 3796 and Scientific Article No. 1271 of the Maryland Agricultural Experiment Station, Department pf Agronomy, University of Maryland was followed to evaluate the synergistic properties of the combination of quinclorac plus a herbicidal protox inhibitor, and a combination of quinclorac, plus a herbicidal protox inhibitor plus a herbicidal auxinic agent as compared with the individual herbicides, using Colby's formulas E=X+Y−XY/100 for a two herbicide combination, where E=the expected percent of inhibition of growth by herbicides, X=the percent inhibition of growth by herbicide A at p lb/A, and Y=the percent inhibition of growth by herbicide B at q lb/A, for a given combination of two herbicides. Colby's formula E=X+Y+Z−(XY+XZ+YZ)/100+XYZ/10,000, was used for the three-way herbicide combination evaluation, where E, X and Y are the same as in the two herbicide formula and Z=the percent inhibition of growth by the third herbicide.

plantain = system: plantain
Experimental: as §1, §2

crabgrass = system: crabgrass
Experimental: as §1, §2

dandelion = system: dandelion
Experimental: as §1, §2

[1] = Test 3, 7 DAT, scale 1=no control, 9=death of plant
[2] = Test 3, 14 DAT, scale 1=no control, 9=death of plant
[3] = Test 3, 21 DAT, scale 1=no control, 9=death of plant
[4] = Test 3, 24 HAT, scale 1=no control, 9=death of plant
[5] = Test 3, 72 HAT, scale 1=no control, 9=death of plant
[6] = Test 4, 24 HAT, scale 1=no control, 9=death of plant
[7] = Test 4, 72 HAT, scale 1=no control, 9=death of plant

O=C(O)c1c(Cl)ccc2cc(Cl)cnc12 [Quinclorac @ 0.375 lbs/A]
% Control Clover (white clover; Test 3, 7 DAT): 44.4% | Control (1-9) Clover (white clover; [1]): 4 | % Control Clover (white clover; Test 3, 14 DAT): 55.6% | Control (1-9) Clover (white clover; [2]): 5 | % Control Clover (white clover; Test 3, 21 DAT): 88.9% | Control (1-9) Clover (white clover; [3]): 8 | % Control Clover (white clover; Test 3, 24 HAT): 11.1% | Control (1-9) Clover (white clover; [4]): 1 | % Control Clover (white clover; Test 3, 72 HAT): 22.2% | Control (1-9) Clover (white clover; [5]): 2 | % Control Clover (white clover; Test 4, 24 HAT): 11.1% | Control (1-9) Clover (white clover; [6]): 1 | % Control Clover (white clover; Test 4, 72 HAT): 22.2% | Control (1-9) Clover (white clover; [7]): 2 | % Control Plantain (plantain; Test 3, 7 DAT): 33.3% | Control (1-9) Plantain (plantain; [1]): 3 | % Control Plantain (plantain; Test 3, 14 DAT): 44.4% | Control (1-9) Plantain (plantain; [2]): 4 | % Control Plantain (plantain; Test 3, 21 DAT): 44.4% | Control (1-9) Plantain (plantain; [3]): 4 | % Control Plantain (plantain; Test 3, 24 HAT): 11.1% | Control (1-9) Plantain (plantain; [4]): 1 | % Control Plantain (plantain; Test 3, 72 HAT): 22.2% | Control (1-9) Plantain (plantain; [5]): 2 | % Control Plantain (plantain; Test 4, 24 HAT): 11.1% | Control (1-9) Plantain (plantain; [6]): 1 | % Control Plantain (plantain; Test 4, 72 HAT): 22.2% | Control (1-9) Plantain (plantain; [7]): 2 | % Control Crabgrass (crabgrass; Test 3, 7 DAT): 22.2% | Control (1-9) Crabgrass (crabgrass; [1]): 2 | % Control Crabgrass (crabgrass; Test 3, 14 DAT): 44.4% | Control (1-9) Crabgrass (crabgrass; [2]): 4 | % Control Crabgrass (crabgrass; Test 3, 21 DAT): 66.7% | Control (1-9) Crabgrass (crabgrass; [3]): 6 | % Control Crabgrass (crabgrass; Test 3, 24 HAT): 11.1% | Control (1-9) Crabgrass (crabgrass; [4]): 1 | % Control Crabgrass (crabgrass; Test 3, 72 HAT): 11.1% | Control (1-9) Crabgrass (crabgrass; [5]): 1 | % Control Crabgrass (crabgrass; Test 4, 24 HAT): 11.1% | Control (1-9) Crabgrass (crabgrass; [6]): 1 | % Control Crabgrass (crabgrass; Test 4, 72 HAT): 11.1% | Control (1-9) Crabgrass (crabgrass; [7]): 1 | % Control Dandelion (dandelion; Test 3, 7 DAT): 22.2% | Control (1-9) Dandelion (dandelion; [1]): 2 | % Control Dandelion (dandelion; Test 3, 14 DAT): 44.4% | Control (1-9) Dandelion (dandelion; [2]): 4 | % Control Dandelion (dandelion; Test 3, 21 DAT): 55.6% | Control (1-9) Dandelion (dandelion; [3]): 5 | % Control Dandelion (dandelion; Test 3, 24 HAT): 11.1% | Control (1-9) Dandelion (dandelion; [4]): 1 | % Control Dandelion (dandelion; Test 3, 72 HAT): 22.2% | Control (1-9) Dandelion (dandelion; [5]): 2 | % Control Dandelion (dandelion; Test 4, 24 HAT): 22.2% | Control (1-9) Dandelion (dandelion; [6]): 2 | % Control Dandelion (dandelion; Test 4, 72 HAT): 22.2% | Control (1-9) Dandelion (dandelion; [7]): 2

Cc1cc(Cl)ccc1OCC(=O)OCCCCCC(C)C [MCPA IOE]
% Control Clover (white clover; Test 4, 7 DAT, 1.10 lbs/A): 66.7% | Control (1-9) Clover (white clover; Test 4, 7 DAT, 1.10 lbs/A): 6 | % Control Clover (white clover; Test 4, 14 DAT, 1.10 lbs/A): 100.0% | Control (1-9) Clover (white clover; Test 4, 14 DAT, 1.10 lbs/A): 9 | % Control Plantain (plantain; Test 4, 7 DAT, 1.10 lbs/A): 66.7% | Control (1-9) Plantain (plantain; Test 4, 7 DAT, 1.10 lbs/A): 6 | % Control Plantain (plantain; Test 4, 14 DAT, 1.10 lbs/A): 66.7% | Control (1-9) Plantain (plantain; Test 4, 14 DAT, 1.10 lbs/A): 6 | % Control Crabgrass (crabgrass; Test 4, 7 DAT, 1.10 lbs/A): 11.1% | Control (1-9) Crabgrass (crabgrass; Test 4, 7 DAT, 1.10 lbs/A): 1 | % Control Crabgrass (crabgrass; Test 4, 14 DAT, 1.10 lbs/A): 11.1% | Control (1-9) Crabgrass (crabgrass; Test 4, 14 DAT, 1.10 lbs/A): 1 | % Control Dandelion (dandelion; Test 4, 7 DAT, 1.10 lbs/A): 44.4% | Control (1-9) Dandelion (dandelion; Test 4, 7 DAT, 1.10 lbs/A): 4 | % Control Dandelion (dandelion; Test 4, 14 DAT, 1.10 lbs/A): 55.6% | Control (1-9) Dandelion (dandelion; Test 4, 14 DAT, 1.10 lbs/A): 5

Cc1nn(-c2cc(CC(Cl)C(=O)O)c(Cl)cc2F)c(=O)n1C(F)F (centres unmarked) [Carfentrazone @ 0.01 lbs/A]
% Control Clover (white clover; Test 4, 24 HAT): 22.2% | Control (1-9) Clover (white clover; [6]): 2 | % Control Clover (white clover; Test 4, 72 HAT): 44.4% | Control (1-9) Clover (white clover; [7]): 4 | % Control Plantain (plantain; Test 4, 24 HAT): 33.3% | Control (1-9) Plantain (plantain; [6]): 3 | % Control Plantain (plantain; Test 4, 72 HAT): 88.9% | Control (1-9) Plantain (plantain; [7]): 8 | % Control Crabgrass (crabgrass; Test 4, 24 HAT): 11.1% | Control (1-9) Crabgrass (crabgrass; [6]): 1 | % Control Crabgrass (crabgrass; Test 4, 72 HAT): 22.2% | Control (1-9) Crabgrass (crabgrass; [7]): 2 | % Control Dandelion (dandelion; Test 4, 24 HAT): 22.2% | Control (1-9) Dandelion (dandelion; [6]): 2 | % Control Dandelion (dandelion; Test 4, 72 HAT): 33.3% | Control (1-9) Dandelion (dandelion; [7]): 3

Cc1nn(-c2cc(CC(Cl)C(=O)O)c(Cl)cc2F)c(=O)n1C(F)F (centres unmarked) [Carfentrazone @ 0.02 lbs/A]
% Control Clover (white clover; Test 4, 24 HAT): 44.4% | Control (1-9) Clover (white clover; [6]): 4 | % Control Clover (white clover; Test 4, 72 HAT): 44.4% | Control (1-9) Clover (white clover; [7]): 4 | % Control Plantain (plantain; Test 4, 24 HAT): 33.3% | Control (1-9) Plantain (plantain; [6]): 3 | % Control Plantain (plantain; Test 4, 72 HAT): 66.7% | Control (1-9) Plantain (plantain; [7]): 6 | % Control Crabgrass (crabgrass; Test 4, 24 HAT): 11.1% | Control (1-9) Crabgrass (crabgrass; [6]): 1 | % Control Crabgrass (crabgrass; Test 4, 72 HAT): 44.4% | Control (1-9) Crabgrass (crabgrass; [7]): 4 | % Control Dandelion (dandelion; Test 4, 24 HAT): 33.3% | Control (1-9) Dandelion (dandelion; [6]): 3 | % Control Dandelion (dandelion; Test 4, 72 HAT): 55.6% | Control (1-9) Dandelion (dandelion; [7]): 5
